# Measurements published in EPA's ToxValDB 9.5 (doi:10.2903/j.efsa.2010.1632).
# Key:
# Neomysis kadiakensis = details: chronic/long-term; duration: 35 days; reproduction
# Cyprinodon variegatus = details: acute; duration: 96 hours; mortality
# Apis mellifera = details: acute; duration: 48 hours; dermal; mortality
# Mus musculus = details: chronic; duration: 78 weeks; body weight
# Rattus norvegicus = details: body weight
# Daphnia magna = details: chronic/long-term; duration: 21 days; reproduction
# Bibionidae = details: chronic/long-term; duration: 28 days; development
# Pimephales promelas = details: chronic/long-term; duration: 301 days; other
# Canidae = details: oral, Dog Other, body weight
# Folsomia candida = details: chronic/long-term; duration: 28 days; reproduction
# Oncorhynchus mykiss = details: acute; duration: 96 hours; mortality
# Oryctolagus sp. = details: reproduction developmental; body weight
# Lycopersicon sp. = details: not reported; seedling emergence
# Aphidius rhopalosiphi = experiment: LR50; higher = less toxic; details: acute; duration: 48 hours; mortality
smiles,measurement,setting,value
CC(C)(C)c1ccc(CSc2cnn(C(C)(C)C)c(=O)c2Cl)cc1 [Pyridaben],NOEC,Neomysis kadiakensis,4.7e-05 mg/L
same,LC50,Cyprinodon variegatus,17 ng/mL
same,LD50,Apis mellifera,> 0.024 µg/piece
same,NOAEL,Mus musculus,0.81 mg/kg-day
same,NOEC,Rattus norvegicus; chronic,2.37 mg/kg-day
same,NOAEL,"Rattus norvegicus; chronic, duration: 2 years",1.1 mg/kg-day
same,NOAEL,Rattus norvegicus; reproduction developmental,4.7 mg/kg-day
same,NOEC,Daphnia magna,8.6e-05 mg/L
same,NOEC,Bibionidae,0.0051 mg/L
same,LC50,"Tagia sp.; acute, duration: 14 days, mortality",> 38 mg/kg
same,NOEC,"Tagia sp.; chronic/long-term, duration: 56 days, reproduction",0.29 mg/kg
same,NOEC,Pimephales promelas,0.00028 mg/L
same,LC50,"Colinus virginianus; acute, oral, diet, mortality",> 4300 mg/kg-day
same,LD50,"Colinus virginianus; acute, oral, mortality",> 2250 mg/kg-day
same,NOEC,Colinus virginianus; reproduction developmental,130 mg/kg-day
same,NOAEL,"Canidae; chronic, duration: 1 years",1 mg/kg-day
same,NOAEL,"Canidae; subchronic, duration: 3 months",1 mg/kg-day
same,NOEC,Folsomia candida,3.28 mg/kg
same,LD50,"Anas platyrhynchos; acute, oral, unspecified, mortality",> 2500 mg/kg-day
same,NOEC,Anas platyrhynchos; reproductive,10 mg/kg-day
same,NOEC,"Anas platyrhynchos; short-term, oral, feed, mortality",659 mg/kg-day
same,LC50,Oncorhynchus mykiss,0.73 ng/mL
same,NOAEL,Oryctolagus sp.,5 mg/kg-day
same,LEL,Lycopersicon sp.,560 g/ha
same,LR50,Aphidius rhopalosiphi,0.24 g/ha
